In US20260042867A1, “ANTIBODY REPURPOSING” (priority 2022, published 2026):
Where two headings read alike, the source gives them in different places.

Tests used:
Assay type in all cases: binding, SARS-COV-2
SRBD - omicron = target: SRBD - omicron
[1] = target: SARS-Cov2 SRBD and anti-alpha-Gal antibody (Severe acute respiratory syndrome coronavirus 2, UniProt P0DTC2)
[2] = tested on: Omicron S1/S2 ECD and anti-alpha-Gal antibody

COC[C@H](NC(=O)[C@@H](CCCCN)NC(=O)[C@H]1c2ccccc2C(=O)N(CCCNC(=O)Cc2ccc(CNC(=O)[C@@H](NC(=O)[C@@H](CCCCN)NC(=O)[C@H]3c4ccccc4C(=O)N(CCCNC(=O)Cc4ccc(CNC(=O)[C@H](CC5CC5)NC(=O)[C@H]5c6ccccc6C(=O)N(CCCNC(=O)[C@@H](C)NC(=O)Cc6ccc(CNC(=O)[C@H](C)NC(=O)[C@@H](CCCCN)NC(=O)[C@H]7c8ccccc8C(=O)N(CCCNC(=O)Cc8ccc(CNC(=O)[C@H](C)NC(=O)CNC(=O)[C@H]9c%10ccccc%10C(=O)N(CCCNC(=O)Cc%10ccc(CNC(=O)[C@H](C)NC(=O)[C@@H](CCC(=O)O)NC(=O)[C@H]%11c%12ccccc%12C(=O)N(CCCNC(=O)Cc%12ccc(CNC(=O)[C@H](Cc%13ccc(F)cc%13)NC(=O)[C@H]%13c%14ccccc%14C(=O)N(CCCNC(=O)[C@@H](CCC(=O)O)NC(=O)Cc%14ccc(CNC(=O)[C@H](C)NC(=O)CNC(=O)[C@H]%15c%16ccccc%16C(=O)N(CCCN)[C@@H]%15c%15ccc(CCC(=O)O)cc%15)cc%14)[C@@H]%13c%13cccc(Oc%14ccccc%14)c%13)cc%12)[C@@H]%11c%11ccc(CCC(=O)O)cc%11)cc%10)[C@@H]9c9cccnc9)cc8)[C@@H]7c7ccc(CCC(=O)O)cc7)cc6)[C@@H]5c5cccc(Oc6ccccc6)c5)cc4)[C@@H]3c3ccccc3)C(C)C)cc2)[C@@H]1c1ccc(O)cc1)C(=O)NCc1ccc(CC(N)=O)cc1 [Technein 16838-89-7]
Kd (SRBD - omicron; BLI, SRBD - omicron, global 1:2 fitting): 7 nM

COC[C@H](NC(=O)[C@H]1c2ccccc2C(=O)N(CCCNC(=O)[C@@H](C)NC(=O)Cc2ccc(CNC(=O)[C@H](Cc3ccc(F)cc3)NC(=O)[C@H]3c4ccccc4C(=O)N(CCCNC(=O)CNC(=O)Cc4ccc(CNC(=O)[C@H](Cc5ccc(F)cc5)NC(=O)[C@H]5c6ccccc6C(=O)N(CCCNC(=O)[C@@H](CCC(=O)O)NC(=O)Cc6ccc(CNC(=O)[C@H](C)NC(=O)[C@H]7c8ccccc8C(=O)N(CCCNC(=O)[C@@H](C)N)[C@@H]7c7ccc(CCC(=O)O)cc7)cc6)[C@@H]5c5cccc(Oc6ccccc6)c5)cc4)[C@@H]3c3ccc(O)cc3)cc2)[C@@H]1c1ccc(O)cc1)C(=O)NCc1ccc(CC(=O)NCC(=O)NCCCN2C(=O)c3ccccc3[C@H](C(=O)N[C@@H](CC3CC3)C(=O)NCc3ccc(CC(=O)N[C@H](CCC(=O)O)C(=O)NCCCN4C(=O)c5ccccc5[C@H](C(=O)N[C@@H](C)C(=O)NCc5ccc(CC(=O)NCCCN6C(=O)c7ccccc7[C@H](C(=O)N[C@H](CCCCN)C(=O)N[C@H](C(=O)NCc7ccc(CC(=O)N[C@H](C)C(=O)NCCCN8C(=O)c9ccccc9[C@H](C(=O)N[C@@H](CC9CC9)C(=O)NCc9ccc(CC(N)=O)cc9)[C@H]8c8ccc(CCC(=O)O)cc8)cc7)C(C)C)[C@H]6c6ccccc6)cc5)[C@H]4c4cccnc4)cc3)[C@H]2c2cccnc2)cc1 [Technein 16838-89-8]
Kd (SRBD - omicron): 4 nM | antibody repurposing of alpha Gal antibodies (ELISA signal) [1]: significantly lower levels of antibody repurposing | antibody repurposing of alpha Gal antibodies (ELISA signal) [2]: significantly lower levels of antibody repurposing
